Tests used:
[1] = tested on: protein degradation and protein synthesis; assay: Translation and degradation assays (3H-phenylalanine); format: cell-based, human; settings: 10 nM bortezomib
Protocol: Next we examined the impact of reducing PSMD2 levels on protein degradation and protein synthesis. Cells were labeled with tritiated-phenylalanine for 24 hrs. We then separately measured the rates at which labeled proteins were degraded through the proteasome and through the lysosome.
To measure rates of protein synthesis, cells were pulse labeled with tritiated-phenylalanine for 1 hr.
For measuring overall rate of synthesis, cells were pretreated with 10 nM Bortezomib for 20 hours, then incorporation of ^3H-phenylalanine was measured for 1 h. The rate of synthesis was described as counts incorporated into cell proteins per hour and per μg of total cell proteins. When working with T47D cells, knockdown of PSMD2 was induced for 3 days with doxycycline before bortezomib treatment. For measuring overall rates of protein degradation, pulse-labeling with ^3H-phenylalanine for 24 hours was done before the bortezomib treatment as previously described (Zhao et al., 2007).

[2] = tested on: T47D cells; assay: Competition co-culture of shPSMD2-RFP and shControl-GFP T47D cells, FACS and microscopy; format: cell-based, human; settings: 48 hours
Protocol: We created two cell lines—one line that expresses red fluorescent protein (turboRFP) and the doxycycline-inducible PSMD2-targeting shRNA and another line that expresses green fluorescent protein (GFP) and a doxycycline-inducible control shRNA (FIG. 6A). First, we induced shRNA expression with doxycycline for 48 hours. After recovery, we mixed shPSMD2-RFP and shControl-GFP cells at different ratios (either 1:1, 1:2, 1:5 or 1:10), adding the cells with reduced PSMD2 as the minority subpopulation. Twenty-four hours after plating, we treated these mixed populations of cells for 48 hours with increasing concentrations of bortezomib (5, 7.5 or 10 nM). We allowed the cells to recover in the absence of bortezomib and then we quantified the red and green cells by FACS analysis (FIG. 6A) and captured representative images by fluorescence microscopy (FIG. 6B).
The experiment described in Example 10 was repeated with minor differences using a panel of different proteasome inhibitors: MLN2238, MLN9708, and oprozomib T47D cells harboring a doxycycline inducible control shRNA (GFP) or a doxycycline-inducible PSMD2 shRNA (TurboRFP) were incubated with doxycycline for 3 days. Cells were collected, counted, and plated at a 1:10 ratio of TurboRFP-expressing PSMD2 shRNA cells/GFP expression control shRNA cells in the absence of Dox. Proteasome inhibitors were added at the specified concentrations and cells were maintained in culture. Cells were allowed to recover in the absence of the proteasome inhibitor and then analyzed by FACS (FIG. 8B, top) or visualized by microscopy (FIG. 8B, bottom). In the absence of proteasome inhibitors, the initial plating ratio of these cells (1:10) was maintained over the duration of the experiment (FIG. 8B). […] The effect was concentration-dependent in that higher concentrations elicited more substantial shifts.
cells were trypsinized in 100 μL Accumax® solution and further diluted into 100 μl PBSx1. The number of cells with red or green fluorescent proteins was measured by MACSQuant® VYB according to manufactures protocol. Images of RFP and GFP were created by overlaying images using Fiji software.

[3] = tested on: IMR32 and Kelly cells; assay: CellTiter-Glo viability of IMR32 and Kelly neuroblastoma cells; format: cell-based; settings: 0.001 um to 0.100 um; 72 hours
Protocol: IMR32 and Kelly cells were each cultured in the presence of bortezomib at concentrations ranging from 0.001 um to 0.100 um. […] The fold viability relative to culture in the absence of bortezomib was determined for each cell line.
The fold viability relative to culture in the absence of the compound was determined for each cell line.

[4] = cells with transiently reduced PSMD2, 20 hours

CC(C)C[C@H](NC(=O)[C@H](Cc1ccccc1)NC(=O)c1cnccn1)B(O)O [bortezomib]
rates of proteolysis by the lysosome ([1]; 20-hour treatment): remained unchanged | inhibition of proteasome degradation [1, 4]: strongly counteracted | suppression of protein synthesis [1, 4]: strongly counteracted | rate of protein degradation ([1]; control cells, 20-hour treatment): sharply decreased | rate of protein synthesis ([1]; control cells, 20 hours): sharply decreased | shift of surviving cell populations towards shPSMD2-RFP cells ([2]; 5 nM, ratios 1:1, 1:2, 1:5, 1:10): substantially shifted the populations of surviving cells | shift of surviving cell populations towards shPSMD2-RFP cells ([2]; 7.5 nM and 10 nM): even more substantial shifts | resistance of IMR32 cells relative to Kelly cells [3]: increased resistance

Reference: patent publication US11092602B2, “Methods and compositions relating to proteasome inhibitor resistance” (Whitehead Institute for Biomedical Research, priority 2015, dated 2021)
